19 compounds from patent publication US12435046B2, “Alkynyl quinazoline compounds” (Black Diamond Therapeutics, Inc., priority 2019, dated 2025) can be followed below.

What all share (assay type): cell-based
What all share (conditions): Table A; BaF3 cells, 3 days

The target in test [1] is T1, EGFR V3 (Homo sapiens, UniProt P00533, DELINS30-297G).
T1 construct: expressed in transfected cells; host or cells: BaF3 (murine pro-B) cells, retroviral transduction with pMXs-IRES-Blasticidin
The experiment in a line: BaF3 cell proliferation assay (CellTiterGlo), EGFR V3. On the procedure: (§1) Retroviral Production: EGFR mutants were subcloned into pMXs-IRES-Blasticidin (RTV-016, Cell Biolabs, San Diego, CA). Retroviral expression vector retrovirus was produced by transient transfection of HEK 293T cells with the retroviral EGFR mutant expression vector pMXs-IRES-Blasticidin (RTV-016, Cell Biolabs), pCMV-Gag-Pol vector and pCMV-VSV-G-Envelope vector. Briefly, HEK 293T/17 cells were plated in 100 mm collagen coated plate (354450, Corning Life Sciences, Tewksbury, MA) (4×10^5 per plate) and incubated overnight. The next day, retroviral plasmids (3 ng of EGFR mutant, 1.0 ng of pCMV-Gag-Pol and 0.5 ng pCMV-VSV-G) were mixed in 500 n1 of Optimem (31985, Life Technologies). The mixture was incubated at room temperature for 5 min and then added to Optimem containing transfection reagent Lipofectamine (11668, Invitrogen) and incubated for 20 minutes. Mixture was then added dropwise to HEK 293T cells. The next day the medium was replaced with fresh culture medium and retrovirus was harvested @ 24 and 48 hrs.
(§2) Generation of EGFR mutant stable cell lines: BaF3 cells (1.5E5 cells) were infected with 1 ml of viral supernatant supplemented with 8 ng/ml polybrene by centrifuging for 30 min at 1000 rpm. Cells were placed in a 37° C. incubator overnight. Cells were then spun for 5 minutes to pellet the cells. Supernatant was removed and cells re-infected a fresh 1 ml of viral supernatant supplemented with 8 ng/ml polybrene by centrifuging for 30 min at 1000 rpm. Cells were placed in 37° C. incubator overnight. Cells were then maintained in RPMI containing 10% Heat Inactivated FBS, 2% L-glutamine containing 10 ng/ml IL-3. After 48 hours cells were selected for retroviral infection in 10 […] for one week. Blasticidin resistant populations were washed twice in phosphate buffered saline before plating in media lacking IL-3 to select for IL-3 independent growth.
(§3) Assay for cell proliferation: BaF3 cell lines were resuspended at 1.3E5 c/ml in RPMI containing 10% Heat Inactivated FBS, 2% L-glutamine and 1% Pen/Strep and dispensed in triplicate (17.5E4 c/well) into 96 well plates. To determine the effect of drug on cell proliferation, cells incubated for 3 days in the presence of vehicle control or test drug at varying concentrations. Inhibition of cell growth was determined by luminescent quantification of intracellular ATP content using CellTiterGlo (Promega), according to the protocol provided by the manufacturer. Comparison of cell number on day 0 versus 72 hours post drug treatment was used to plot dose-response curves. The number of viable cells was determined and normalized to vehicle-treated controls. Inhibition of proliferation, relative to vehicle-treated controls was expressed as a fraction of 1 and graphed using PRISM® software (Graphpad Software, San Diego, CA). EC50 values were determined with the same application.
A general note: In ATP-based viability assays light output follows the ATP content of the culture.

Test [2] has as its target T2, HER2 S310F (Homo sapiens, UniProt P04626, S310F).
T2 construct: expressed in transfected cells; host or cells: BaF3 (murine pro-B) cells
The experiment in a line: BaF3 cell proliferation assay (CellTiterGlo), HER2 S310F.

In test [3] the target is T3, EGFR wt (Homo sapiens, UniProt P00533).
T3 construct: expressed in transfected cells; host or cells: BaF3 (murine pro-B) cells, retroviral transduction with pMXs-IRES-Blasticidin
T3 sequence (P00533 25-1210): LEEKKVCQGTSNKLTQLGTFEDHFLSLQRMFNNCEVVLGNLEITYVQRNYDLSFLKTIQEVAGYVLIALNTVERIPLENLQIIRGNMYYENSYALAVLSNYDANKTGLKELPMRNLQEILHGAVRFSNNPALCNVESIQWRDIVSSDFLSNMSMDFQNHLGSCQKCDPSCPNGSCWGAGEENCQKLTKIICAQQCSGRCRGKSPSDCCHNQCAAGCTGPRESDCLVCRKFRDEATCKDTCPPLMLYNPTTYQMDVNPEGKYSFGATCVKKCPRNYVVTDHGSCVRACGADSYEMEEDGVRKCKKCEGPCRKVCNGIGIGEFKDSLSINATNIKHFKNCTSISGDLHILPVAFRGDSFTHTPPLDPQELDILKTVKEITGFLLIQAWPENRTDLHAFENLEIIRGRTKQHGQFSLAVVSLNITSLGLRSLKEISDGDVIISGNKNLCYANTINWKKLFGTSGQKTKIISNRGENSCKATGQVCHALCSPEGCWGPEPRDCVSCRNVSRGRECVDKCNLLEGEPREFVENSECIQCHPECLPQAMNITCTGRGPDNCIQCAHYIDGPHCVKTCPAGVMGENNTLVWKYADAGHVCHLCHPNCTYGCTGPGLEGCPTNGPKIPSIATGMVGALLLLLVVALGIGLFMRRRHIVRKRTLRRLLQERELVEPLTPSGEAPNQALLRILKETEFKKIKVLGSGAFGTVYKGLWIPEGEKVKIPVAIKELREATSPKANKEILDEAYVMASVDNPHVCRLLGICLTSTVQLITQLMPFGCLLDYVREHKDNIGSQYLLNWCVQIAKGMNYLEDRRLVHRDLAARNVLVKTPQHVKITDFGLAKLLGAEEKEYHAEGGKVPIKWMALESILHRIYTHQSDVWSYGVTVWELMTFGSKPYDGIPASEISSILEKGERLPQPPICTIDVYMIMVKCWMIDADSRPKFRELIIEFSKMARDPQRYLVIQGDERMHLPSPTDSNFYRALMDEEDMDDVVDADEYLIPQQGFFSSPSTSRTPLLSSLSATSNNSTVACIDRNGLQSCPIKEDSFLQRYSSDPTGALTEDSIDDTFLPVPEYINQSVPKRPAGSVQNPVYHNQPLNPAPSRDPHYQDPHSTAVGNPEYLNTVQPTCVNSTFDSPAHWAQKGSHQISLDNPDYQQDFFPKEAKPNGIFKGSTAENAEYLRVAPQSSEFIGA
Briefly: BaF3 cell proliferation assay (CellTiterGlo), EGFR wt. As to the method:
as §1, §2, §3

The target in test [4] is T4, HER2 YVMA (Homo sapiens, UniProt P04626, INS775YVMA).
T4 construct: expressed in transfected cells; host or cells: BaF3 (murine pro-B) cells
T4 sequence (P04626 with tags, fused parts or gaps INS775YVMA): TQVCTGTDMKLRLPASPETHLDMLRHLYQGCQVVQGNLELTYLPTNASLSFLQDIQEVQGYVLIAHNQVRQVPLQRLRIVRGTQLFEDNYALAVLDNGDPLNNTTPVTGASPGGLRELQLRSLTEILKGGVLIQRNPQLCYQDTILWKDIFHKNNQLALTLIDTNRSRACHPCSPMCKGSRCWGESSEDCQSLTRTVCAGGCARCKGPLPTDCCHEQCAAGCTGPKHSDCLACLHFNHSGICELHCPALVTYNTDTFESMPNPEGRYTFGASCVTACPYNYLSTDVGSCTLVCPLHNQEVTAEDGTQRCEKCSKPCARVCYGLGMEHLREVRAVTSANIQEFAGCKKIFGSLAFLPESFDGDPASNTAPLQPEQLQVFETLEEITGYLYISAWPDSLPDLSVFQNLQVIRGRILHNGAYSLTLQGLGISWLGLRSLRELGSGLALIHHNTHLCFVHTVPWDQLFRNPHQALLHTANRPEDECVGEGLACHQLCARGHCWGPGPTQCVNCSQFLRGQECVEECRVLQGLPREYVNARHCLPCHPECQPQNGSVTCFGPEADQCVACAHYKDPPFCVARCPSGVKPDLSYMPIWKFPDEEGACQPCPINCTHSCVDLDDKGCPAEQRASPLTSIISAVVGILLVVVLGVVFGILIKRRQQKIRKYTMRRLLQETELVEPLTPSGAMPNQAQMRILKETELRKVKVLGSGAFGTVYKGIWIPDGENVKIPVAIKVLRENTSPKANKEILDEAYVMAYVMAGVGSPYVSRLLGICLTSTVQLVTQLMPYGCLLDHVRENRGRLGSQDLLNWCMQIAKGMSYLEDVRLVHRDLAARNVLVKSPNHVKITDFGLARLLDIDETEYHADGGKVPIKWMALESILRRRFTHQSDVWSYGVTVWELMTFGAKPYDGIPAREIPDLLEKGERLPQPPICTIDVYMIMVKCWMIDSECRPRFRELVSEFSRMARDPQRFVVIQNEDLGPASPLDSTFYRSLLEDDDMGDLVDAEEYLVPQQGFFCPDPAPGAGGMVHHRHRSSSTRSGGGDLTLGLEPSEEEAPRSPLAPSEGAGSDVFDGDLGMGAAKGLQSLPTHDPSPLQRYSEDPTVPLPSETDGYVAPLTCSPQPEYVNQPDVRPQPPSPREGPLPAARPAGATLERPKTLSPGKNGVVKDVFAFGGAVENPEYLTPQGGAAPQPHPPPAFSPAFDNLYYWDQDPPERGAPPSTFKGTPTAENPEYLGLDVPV
Briefly: BaF3 cell proliferation assay (CellTiterGlo), HER2 YVMA.

Bounds are passed on as bounds.

T1 sequence (P00533 with tags, fused parts or gaps DELINS30-297G): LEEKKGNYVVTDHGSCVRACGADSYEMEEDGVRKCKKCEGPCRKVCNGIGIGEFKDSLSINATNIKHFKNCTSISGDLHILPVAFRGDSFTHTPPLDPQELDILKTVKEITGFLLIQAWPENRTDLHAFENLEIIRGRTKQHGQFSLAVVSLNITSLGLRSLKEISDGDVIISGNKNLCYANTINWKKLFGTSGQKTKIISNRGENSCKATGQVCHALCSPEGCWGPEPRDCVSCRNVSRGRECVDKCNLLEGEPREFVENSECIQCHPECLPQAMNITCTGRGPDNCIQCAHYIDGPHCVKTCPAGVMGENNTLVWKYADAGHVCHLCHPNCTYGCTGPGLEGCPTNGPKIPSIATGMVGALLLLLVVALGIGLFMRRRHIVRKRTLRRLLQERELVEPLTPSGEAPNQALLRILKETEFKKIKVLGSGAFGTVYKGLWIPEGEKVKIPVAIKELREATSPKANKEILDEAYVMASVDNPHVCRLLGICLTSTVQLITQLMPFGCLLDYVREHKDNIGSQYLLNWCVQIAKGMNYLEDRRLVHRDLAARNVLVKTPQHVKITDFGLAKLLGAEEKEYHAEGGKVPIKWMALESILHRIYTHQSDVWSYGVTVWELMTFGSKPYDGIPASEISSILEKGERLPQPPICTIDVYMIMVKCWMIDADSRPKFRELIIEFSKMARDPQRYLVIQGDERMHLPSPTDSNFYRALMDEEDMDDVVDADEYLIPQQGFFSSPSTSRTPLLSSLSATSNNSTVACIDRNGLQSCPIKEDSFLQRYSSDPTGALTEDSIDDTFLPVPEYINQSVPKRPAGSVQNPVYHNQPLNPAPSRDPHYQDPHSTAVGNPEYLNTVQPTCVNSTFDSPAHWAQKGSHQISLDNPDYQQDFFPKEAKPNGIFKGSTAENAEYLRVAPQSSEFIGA
T2 sequence (P04626 23-1255 S310F): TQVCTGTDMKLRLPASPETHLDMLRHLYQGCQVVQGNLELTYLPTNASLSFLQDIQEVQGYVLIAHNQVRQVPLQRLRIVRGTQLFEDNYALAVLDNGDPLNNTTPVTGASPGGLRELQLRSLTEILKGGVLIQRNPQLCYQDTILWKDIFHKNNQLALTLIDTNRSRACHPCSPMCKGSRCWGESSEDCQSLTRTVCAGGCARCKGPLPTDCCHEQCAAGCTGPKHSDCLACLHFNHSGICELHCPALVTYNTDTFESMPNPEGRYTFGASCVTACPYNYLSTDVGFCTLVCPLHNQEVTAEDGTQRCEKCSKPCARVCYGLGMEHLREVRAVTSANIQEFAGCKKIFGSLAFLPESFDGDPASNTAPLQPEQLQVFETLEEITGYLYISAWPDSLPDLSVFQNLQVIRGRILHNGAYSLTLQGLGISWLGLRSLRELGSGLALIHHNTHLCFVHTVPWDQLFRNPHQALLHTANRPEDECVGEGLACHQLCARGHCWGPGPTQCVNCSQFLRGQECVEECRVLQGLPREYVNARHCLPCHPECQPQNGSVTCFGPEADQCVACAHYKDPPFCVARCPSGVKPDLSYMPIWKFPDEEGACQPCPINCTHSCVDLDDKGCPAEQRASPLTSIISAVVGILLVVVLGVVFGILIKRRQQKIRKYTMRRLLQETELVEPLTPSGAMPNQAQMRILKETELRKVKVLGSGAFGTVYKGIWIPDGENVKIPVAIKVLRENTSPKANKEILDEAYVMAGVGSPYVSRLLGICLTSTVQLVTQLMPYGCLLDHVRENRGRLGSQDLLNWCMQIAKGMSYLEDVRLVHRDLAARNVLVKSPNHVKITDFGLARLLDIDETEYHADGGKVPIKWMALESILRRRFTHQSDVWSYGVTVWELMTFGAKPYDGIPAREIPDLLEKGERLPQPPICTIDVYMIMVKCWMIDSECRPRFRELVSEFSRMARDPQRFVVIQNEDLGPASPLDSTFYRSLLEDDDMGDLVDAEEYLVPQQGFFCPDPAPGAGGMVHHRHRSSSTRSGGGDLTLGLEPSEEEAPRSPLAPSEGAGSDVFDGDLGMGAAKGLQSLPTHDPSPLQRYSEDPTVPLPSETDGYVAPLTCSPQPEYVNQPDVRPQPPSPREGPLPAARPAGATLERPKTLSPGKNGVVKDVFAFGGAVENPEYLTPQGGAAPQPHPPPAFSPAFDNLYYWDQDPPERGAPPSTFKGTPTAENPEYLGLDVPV

As to `CN1C[C@H]2C[C@@]2(C#Cc2cc3ncnc(Nc4cccc(Cl)c4F)c3cc2NC(=O)C#CCN2CCOCC2)C1` [Compound 18, N-(4-((3-chloro-2-fluorophenyl)amino)-7-(((1R,5S)-3-methyl-3-azabicyclo[3.1.0]hexan-1-yl)ethynyl)quinazolin-6-yl)-4-morpholinobut-2-ynamide], the IC50 in test [1] and in test [2] was no more than 50 nM each time.

`CCC(=O)Nc1cc2c(Nc3cccc(Cl)c3F)ncnc2cc1C#C[C@@]1(C)CCN(C)C1` [Compound 22, (R)—N-(4-((3-chloro-2-fluorophenyl)amino)-7-((1,3-dimethylpyrrolidin-3-yl)ethynyl)quinazolin-6-yl)propionamide]: the IC50 in test [1] and in test [2] was greater than 500 nM each time.

With `C/C=C/C(=O)Nc1cc2c(Nc3cccc(Cl)c3F)ncnc2cc1C#C[C@@]1(C)CCN(C)C1` [Compound 27, (R,E)-N-(4-((3-chloro-2-fluorophenyl)amino)-7-((1,3-dimethylpyrrolidin-3-yl)ethynyl)quinazolin-6-yl)but-2-enamide], the values for the IC50 in test [3], in test [1] and in test [4] were 100 to 500 nM, greater than 500 nM and greater than 500 nM, respectively.

Turning to `C=CC(=O)Nc1cc2c(Nc3ccc(Oc4ccn5ncnc5c4)c(C)c3)ncnc2cc1C#CC12CC1CN(C)C2` (stereo not shown) [Compound 28, N-(4-((4-([1,2,4]triazolo[1,5-a]pyridin-7-yloxy)-3-methylphenyl)amino)-7-((3-methyl-3-azabicyclo[3.1.0]hexan-1-yl)ethynyl)quinazolin-6-yl)acrylamide], the results for the IC50 in test [3], in test [1] and in test [4] were greater than 500 nM, no more than 50 nM and no more than 50 nM, respectively.

Take `C=CC(=O)Nc1cc2c(Nc3cc(Cl)ccc3F)ncnc2cc1C#CC1(C)COC1` [Compound 29, N-(4-((5-chloro-2-fluorophenyl)amino)-7-((3-methyloxetan-3-yl)ethynyl)quinazolin-6-yl)acrylamide]: the IC50 in test [3] was 100 to 500 nM; in test [1], 100 to 500 nM; in test [4] it was greater than 500 nM.

As for `C=CC(=O)Nc1cc2c(Nc3cccc(Cl)c3F)ncnc2cc1C#CC1(C)COC1` [Compound 30, N-(4-((3-chloro-2-fluorophenyl)amino)-7-((3-methyloxetan-3-yl)ethynyl)quinazolin-6-yl)acrylamide], the IC50 in test [3] is 50 to 100 nM; in test [1] it was no more than 50 nM; in test [4], 50 to 100 nM.

For the compound `C=C(CO)C(=O)Nc1cc2c(Nc3cccc(Cl)c3F)ncnc2cc1C#C[C@@]1(C)CCN(C)C1` [Compound 31, (R)—N-(4-((3-chloro-2-fluorophenyl)amino)-7-((1,3-dimethylpyrrolidin-3-yl)ethynyl)quinazolin-6-yl)-2-(hydroxymethyl)acrylamide], the results for the IC50 in test [3], in test [1] and in test [4] were no more than 50 nM, 50 to 100 nM and 100 to 500 nM, respectively.

In the case of `C=CC(=O)Nc1cc2c(Nc3cccc(Cl)c3F)ncnc2cc1C#CC1(C)CN(C)CCO1` (stereo not shown) [Compound 32, N-(4-((3-chloro-2-fluorophenyl)amino)-7-((2,4-dimethylmorpholin-2-yl)ethynyl)quinazolin-6-yl)acrylamide], the IC50 in test [3] was greater than 500 nM; in test [1], no more than 50 nM; in test [4] it was greater than 500 nM.

Turning to `C=CC(=O)Nc1cc2c(Nc3ccc(Cl)c(Cl)c3F)ncnc2cc1C#C[C@]12C[C@H]1CN(C)C2` [Compound 33, N-(4-((3,4-dichloro-2-fluorophenyl)amino)-7-(((1S,5R)-3-methyl-3-azabicyclo[3.1.0]hexan-1-yl)ethynyl)quinazolin-6-yl)acrylamide], the IC50 in test [3], in test [1] and in test [4] was no more than 50 nM each time.

With `C=CC(=O)Nc1cc2c(Nc3ccc(Cl)c(Cl)c3F)ncnc2cc1C#C[C@@]12C[C@@H]1CN(C)C2` [Compound 34], the IC50 in test [3], in test [1] and in test [4] was no more than 50 nM each time.

As to `C=CC(=O)Nc1cc2c(Nc3cccc(Cl)c3F)ncnc2cc1C#C[C@@]1(OC)CCN(C)C1` [Compound 35, (S)—N-(4-((3-chloro-2-fluorophenyl)amino)-7-((3-methoxy-1-methylpyrrolidin-3-yl)ethynyl)quinazolin-6-yl)acrylamide], the IC50 in test [3], in test [1] and in test [4] was no more than 50 nM in each case.

On to `C=CC(=O)Nc1cc2c(Nc3cccc(Cl)c3F)ncnc2cc1C#C[C@]1(OC)CCN(C)C1` [Compound 36, (R)—N-(4-((3-chloro-2-fluorophenyl)amino)-7-((3-methoxy-1-methylpyrrolidin-3-yl)ethynyl)quinazolin-6-yl)acrylamide], for which the IC50 in test [3], in test [1] and in test [4] was no more than 50 nM in each case.

For the compound `CC#CC(=O)Nc1cc2c(Nc3cccc(Cl)c3F)ncnc2cc1C#C[C@@]12C[C@@H]1CN(C)C2` [Compound 38, N-(4-((3-chloro-2-fluorophenyl)amino)-7-(((1R,5S)-3-methyl-3-azabicyclo[3.1.0]hexan-1-yl)ethynyl)quinazolin-6-yl)but-2-ynamide], the results for the IC50 in test [3], in test [1] and in test [4] were 50 to 100 nM, no more than 50 nM and 100 to 500 nM, respectively.

As for `CC(C)/C=C/C(=O)Nc1cc2c(Nc3cccc(Cl)c3F)ncnc2cc1C#C[C@@]1(C)CCN(C)C1` [Compound 39, (E)-N-[4-(3-chloro-2-fluoro-anilino)-7-[2-[(3R)-1,3-dimethylpyrrolidin-3-yl]ethynyl]quinazolin-6-yl]-4-methyl-pent-2-enamide], the values for the IC50 in test [3], in test [1] and in test [4] were 50 to 100 nM, greater than 500 nM and greater than 500 nM, respectively.

In the case of `C=CC(=O)Nc1cc2c(Nc3ccc(Oc4ccccc4)cc3)ncnc2cc1C#C[C@@]12C[C@@H]1CN(C)C2` [Compound 40, N-(7-(((1R,5S)-3-methyl-3-azabicyclo[3.1.0]hexan-1-yl)ethynyl)-4-((4-phenoxyphenyl)amino)quinazolin-6-yl)acrylamide], the figures for the IC50 in test [3], in test [1] and in test [4] were 100 to 500 nM, no more than 50 nM and 100 to 500 nM, respectively.

On to `C=CC(=O)Nc1cc2c(Nc3cccc(Cl)c3F)ncnc2cc1C#C[C@]12C[C@H]1CN(C(C)C)C2` [Compound 42, N-(4-((3-chloro-2-fluorophenyl)amino)-7-(((1S,5R)-3-isopropyl-3-azabicyclo[3.1.0]hexan-1-yl)ethynyl)quinazolin-6-yl)acrylamide], for which the IC50 in test [3], in test [1] and in test [4] was no more than 50 nM in each case.

Regarding `COC(=O)Nc1cc2c(Nc3cccc(Cl)c3F)ncnc2cc1C#CC1(C)CCN(C)C1` (stereo not shown) [Compound 43, Methyl (4-((3-chloro-2-fluorophenyl)amino)-7-((1,3-dimethylpyrrolidin-3-yl)ethynyl)quinazolin-6-yl)carbamate], the IC50 is no more than 50 nM in test [3], greater than 500 nM in test [1] and greater than 500 nM in test [4].

As to `CN(C)C/C=C/C(=O)Nc1cc2c(Nc3cccc(Cl)c3F)ncnc2cc1C#CC1(C)CCOC1` (stereo not shown) [Compound 44, (E)-N-(4-((3-chloro-2-fluorophenyl)amino)-7-((3-methyltetrahydrofuran-3-yl)ethynyl)quinazolin-6-yl)-4-(dimethylamino)but-2-enamide], the IC50 in test [3], in test [1] and in test [4] was no more than 50 nM in each case.

`CN1CC[C@](C)(C#Cc2cc3ncnc(Nc4cccc(Cl)c4F)c3cc2NC(=O)CC#N)C1` [Compound No. 84, (R)—N-(4-((3-chloro-2-fluorophenyl)amino)-7-((1,3-dimethylpyrrolidin-3-yl)ethynyl)quinazolin-6-yl)-2-cyanoacetamide]: the IC50 in test [3], in test [1] and in test [4] was greater than 500 nM in each case.

What is called IC50 is the point on the concentration scale where inhibition reaches its midpoint. A high value points to a need for much substance.
